Values of other authors in patent US20100021530A1, “ENHANCED TRANS-KERATIN DRUG DELIVERY” (Innovation Biomedical Devices, Inc., priority 2008, published 2010).

System: Tinea unguium or onychomycosis (nail fungus)
Conditions: topical, after a year of treatment, at best

SMILES: Cc1cc(C2CCCCC2)n(O)c(=O)c1 [ciclopirox]
- cure rate: around 20%
